Source: patent US12064508B2, “Compositions and methods for nasal administration of drugs to brain and for systemic effect” (priority 2017, dated 2024)

System: nasal cavity
Experiment: Local safety: histopathology of the nasal cavity
Conditions: intranasal 15 μl/rat twice a day for one week
Experimental: The effect of phospholipid magnesome on the nasal cavity was evaluated in rats.
The animals received the treatments twice a day for one week. […] Sections of the nasal cavity were cut serially at 7 μm thickness and stained with Hematoxylin & Eosin. […] Local toxicity was assessed by evaluating the histopathological alterations in different regions of the nasal cavity (cartilage and turbinate bone, lamina propria and submucosa, mucosal epithelium and lumen).

CCCCCCCCCCCCOS(=O)(=O)[O-].[Na+] [SLS, Sodium lauryl sulfate]
histopathological findings in the nasal cavity: minimal proteinaceous material in the lumen and focal aggregations of neutrophils
